Source: paper PMC6430017, “Structural and chemical insights into the covalent-allosteric inhibition of the protein kinase Akt” (Chemical Science, 2019)

What was measured:
Test in all cases: SelectScreen Z'LYTE kinase profiling
Assay type in all cases: biochemical
Conditions in all cases: ATP at apparent KM
BRSK1 (SAD1) = biological target: T1, BRSK1 (SAD1) (Homo sapiens, UniProt Q8TDC3)
T1 sequence (Q8TDC3 1-778): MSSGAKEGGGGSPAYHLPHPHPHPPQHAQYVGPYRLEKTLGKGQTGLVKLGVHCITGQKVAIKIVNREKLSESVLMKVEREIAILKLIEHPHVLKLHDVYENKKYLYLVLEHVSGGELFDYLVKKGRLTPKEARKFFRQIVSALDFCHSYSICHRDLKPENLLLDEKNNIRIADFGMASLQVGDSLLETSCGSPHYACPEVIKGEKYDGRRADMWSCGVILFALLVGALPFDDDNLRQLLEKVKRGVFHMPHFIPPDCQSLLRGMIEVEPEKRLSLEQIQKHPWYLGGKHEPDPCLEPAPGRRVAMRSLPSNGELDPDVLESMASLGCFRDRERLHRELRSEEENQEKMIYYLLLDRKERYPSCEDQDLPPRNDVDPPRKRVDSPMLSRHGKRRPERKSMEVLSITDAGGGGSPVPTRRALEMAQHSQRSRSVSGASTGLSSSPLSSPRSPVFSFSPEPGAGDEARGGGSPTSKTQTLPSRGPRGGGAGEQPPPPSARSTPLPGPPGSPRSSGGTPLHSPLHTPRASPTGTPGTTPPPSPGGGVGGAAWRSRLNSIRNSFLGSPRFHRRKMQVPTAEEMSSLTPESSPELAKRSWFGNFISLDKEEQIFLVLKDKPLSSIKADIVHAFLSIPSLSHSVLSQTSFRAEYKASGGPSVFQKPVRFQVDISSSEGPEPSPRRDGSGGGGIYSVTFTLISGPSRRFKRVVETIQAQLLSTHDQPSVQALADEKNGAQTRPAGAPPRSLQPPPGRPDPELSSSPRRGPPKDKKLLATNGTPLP
Procedure: (§1) protein kinases at a compound concentration of 1 µM. Measurements were performed in duplicates
(§2) and at the particular apparent ATP KM of each individual kinase employing the activity based Z’LYTE®
(§3) kinase assay of the SelectScreen® Kinase Profiling Services (ThermoFisher Scientific).
(§4) kinases at a compound concentration of 1 µM. Measurements were performed in duplicates and at
(§5) the particular apparent ATP KM of each individual kinase employing the activity based Z’LYTE® kinase
(§6) assay of the SelectScreen® Kinase Profiling Services (ThermoFisher Scientific).

PRKG1 = biological target: T2, PRKG1 (Homo sapiens, UniProt Q13976)
T2 sequence (Q13976 1-671): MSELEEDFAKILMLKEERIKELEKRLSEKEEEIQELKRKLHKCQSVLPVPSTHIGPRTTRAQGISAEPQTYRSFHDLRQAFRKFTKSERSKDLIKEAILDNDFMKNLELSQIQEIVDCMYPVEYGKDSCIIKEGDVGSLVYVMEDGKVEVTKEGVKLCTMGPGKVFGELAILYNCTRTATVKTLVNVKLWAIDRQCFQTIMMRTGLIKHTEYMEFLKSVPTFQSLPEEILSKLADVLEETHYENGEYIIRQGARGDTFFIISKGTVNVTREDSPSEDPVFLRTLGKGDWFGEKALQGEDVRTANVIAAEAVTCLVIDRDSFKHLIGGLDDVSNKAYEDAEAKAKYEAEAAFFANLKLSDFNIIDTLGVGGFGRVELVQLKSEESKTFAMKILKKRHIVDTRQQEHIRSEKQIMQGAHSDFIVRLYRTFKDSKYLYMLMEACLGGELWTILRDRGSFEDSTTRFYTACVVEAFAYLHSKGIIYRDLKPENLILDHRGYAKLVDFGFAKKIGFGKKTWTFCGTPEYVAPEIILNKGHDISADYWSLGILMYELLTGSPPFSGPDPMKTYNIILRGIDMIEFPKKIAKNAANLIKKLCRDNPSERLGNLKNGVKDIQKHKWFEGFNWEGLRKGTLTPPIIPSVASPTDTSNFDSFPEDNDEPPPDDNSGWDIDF

ROCK1 = ROCK1 (Homo sapiens, UniProt Q13464)
Procedure: as §1, §2, §3, §4, §5, §6

GSK3B (GSK3 beta) = GSK3B (GSK3 beta) (Homo sapiens, UniProt P49841)
Procedure: as §1, §2, §3, §4, §5, §6

PTK2 (FAK) = PTK2 (FAK) (Homo sapiens, UniProt Q05397)
Procedure: as §1, §2, §3, §4, §5, §6

MAP4K5 (KHS1) = MAP4K5 (KHS1) (Homo sapiens, UniProt Q9Y4K4)
Procedure: as §1, §2, §3, §4, §5, §6

JAK2 = JAK2 (Homo sapiens, UniProt O60674)
Procedure: as §1, §2, §3, §4, §5, §6

IGF1R = IGF1R (Homo sapiens, UniProt P08069)
DNA-PK = DNA-PK (Homo sapiens, UniProt P78527)
Procedure: as §1, §2, §3, §4, §5, §6

PRKACA (PKA) = PRKACA (PKA) (Homo sapiens, UniProt P17612)
Procedure: as §1, §2, §3, §4, §5, §6

PAK4 = PAK4 (Homo sapiens, UniProt O96013)
Procedure: as §1, §2, §3, §4, §5, §6

PKN1 (PRK1) = PKN1 (PRK1) (Homo sapiens, UniProt Q16512)
Procedure: as §1, §2, §3, §4, §5, §6

CDC42 BPA (MRCKA) = CDC42 BPA (MRCKA) (Homo sapiens, UniProt Q5VT25)
Procedure: as §1, §2, §3, §4, §5, §6

Chain of JAK2 (O60674 whole entry): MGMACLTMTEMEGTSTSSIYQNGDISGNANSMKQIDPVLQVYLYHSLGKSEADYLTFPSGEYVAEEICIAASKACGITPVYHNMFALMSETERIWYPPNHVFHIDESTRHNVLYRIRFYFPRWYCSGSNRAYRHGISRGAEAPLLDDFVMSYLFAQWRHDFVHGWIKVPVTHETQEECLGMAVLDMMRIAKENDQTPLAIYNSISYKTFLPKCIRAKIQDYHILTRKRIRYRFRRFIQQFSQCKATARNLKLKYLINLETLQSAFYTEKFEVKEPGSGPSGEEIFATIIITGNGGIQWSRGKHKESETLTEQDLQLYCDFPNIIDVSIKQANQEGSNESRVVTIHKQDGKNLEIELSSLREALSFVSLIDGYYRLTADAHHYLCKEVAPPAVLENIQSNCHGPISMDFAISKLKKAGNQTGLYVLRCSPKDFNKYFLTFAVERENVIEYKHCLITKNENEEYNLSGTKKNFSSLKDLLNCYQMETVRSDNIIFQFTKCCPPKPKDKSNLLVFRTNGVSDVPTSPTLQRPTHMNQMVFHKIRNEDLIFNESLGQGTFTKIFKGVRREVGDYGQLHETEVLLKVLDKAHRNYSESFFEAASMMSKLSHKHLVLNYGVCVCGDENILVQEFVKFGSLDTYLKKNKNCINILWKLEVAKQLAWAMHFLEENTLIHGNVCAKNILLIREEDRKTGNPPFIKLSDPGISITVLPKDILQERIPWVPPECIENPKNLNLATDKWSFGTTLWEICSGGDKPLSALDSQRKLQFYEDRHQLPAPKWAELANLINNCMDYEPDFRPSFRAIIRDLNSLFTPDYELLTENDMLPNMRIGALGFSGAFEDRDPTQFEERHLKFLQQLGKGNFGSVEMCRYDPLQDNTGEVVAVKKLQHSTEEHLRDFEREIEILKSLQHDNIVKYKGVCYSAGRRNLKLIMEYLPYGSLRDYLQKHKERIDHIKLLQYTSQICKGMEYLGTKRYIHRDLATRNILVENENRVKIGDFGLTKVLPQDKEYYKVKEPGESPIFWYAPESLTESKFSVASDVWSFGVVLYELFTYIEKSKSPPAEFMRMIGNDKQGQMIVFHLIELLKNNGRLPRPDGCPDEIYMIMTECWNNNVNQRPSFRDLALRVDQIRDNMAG
Chain of PKN1 (PRK1) (Q16512 whole entry): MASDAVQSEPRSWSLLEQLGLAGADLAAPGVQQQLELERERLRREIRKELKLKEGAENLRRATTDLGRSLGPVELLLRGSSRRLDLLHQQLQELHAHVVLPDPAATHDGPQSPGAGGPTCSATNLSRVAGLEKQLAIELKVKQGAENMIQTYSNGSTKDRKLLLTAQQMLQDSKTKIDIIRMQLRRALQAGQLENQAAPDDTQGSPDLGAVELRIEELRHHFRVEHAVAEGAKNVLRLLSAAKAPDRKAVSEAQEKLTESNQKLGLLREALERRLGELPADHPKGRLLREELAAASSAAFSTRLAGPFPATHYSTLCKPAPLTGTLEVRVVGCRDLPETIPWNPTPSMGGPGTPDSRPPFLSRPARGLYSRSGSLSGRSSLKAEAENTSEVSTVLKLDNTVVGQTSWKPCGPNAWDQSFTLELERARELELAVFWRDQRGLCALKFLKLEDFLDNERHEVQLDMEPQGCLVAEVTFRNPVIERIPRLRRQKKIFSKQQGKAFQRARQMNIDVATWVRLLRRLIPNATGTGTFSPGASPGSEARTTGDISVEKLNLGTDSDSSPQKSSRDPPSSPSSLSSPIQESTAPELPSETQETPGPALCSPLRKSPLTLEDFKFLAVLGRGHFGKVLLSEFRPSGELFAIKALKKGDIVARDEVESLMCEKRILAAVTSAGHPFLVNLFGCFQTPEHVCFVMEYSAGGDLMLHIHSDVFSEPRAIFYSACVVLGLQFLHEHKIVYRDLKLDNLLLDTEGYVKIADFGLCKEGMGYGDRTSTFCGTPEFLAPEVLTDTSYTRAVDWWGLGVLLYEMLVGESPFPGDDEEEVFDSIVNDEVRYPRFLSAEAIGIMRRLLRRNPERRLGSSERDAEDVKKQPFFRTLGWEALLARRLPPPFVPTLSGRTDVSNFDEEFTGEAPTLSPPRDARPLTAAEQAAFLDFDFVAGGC
Chain of ROCK1 (Q13464 whole entry): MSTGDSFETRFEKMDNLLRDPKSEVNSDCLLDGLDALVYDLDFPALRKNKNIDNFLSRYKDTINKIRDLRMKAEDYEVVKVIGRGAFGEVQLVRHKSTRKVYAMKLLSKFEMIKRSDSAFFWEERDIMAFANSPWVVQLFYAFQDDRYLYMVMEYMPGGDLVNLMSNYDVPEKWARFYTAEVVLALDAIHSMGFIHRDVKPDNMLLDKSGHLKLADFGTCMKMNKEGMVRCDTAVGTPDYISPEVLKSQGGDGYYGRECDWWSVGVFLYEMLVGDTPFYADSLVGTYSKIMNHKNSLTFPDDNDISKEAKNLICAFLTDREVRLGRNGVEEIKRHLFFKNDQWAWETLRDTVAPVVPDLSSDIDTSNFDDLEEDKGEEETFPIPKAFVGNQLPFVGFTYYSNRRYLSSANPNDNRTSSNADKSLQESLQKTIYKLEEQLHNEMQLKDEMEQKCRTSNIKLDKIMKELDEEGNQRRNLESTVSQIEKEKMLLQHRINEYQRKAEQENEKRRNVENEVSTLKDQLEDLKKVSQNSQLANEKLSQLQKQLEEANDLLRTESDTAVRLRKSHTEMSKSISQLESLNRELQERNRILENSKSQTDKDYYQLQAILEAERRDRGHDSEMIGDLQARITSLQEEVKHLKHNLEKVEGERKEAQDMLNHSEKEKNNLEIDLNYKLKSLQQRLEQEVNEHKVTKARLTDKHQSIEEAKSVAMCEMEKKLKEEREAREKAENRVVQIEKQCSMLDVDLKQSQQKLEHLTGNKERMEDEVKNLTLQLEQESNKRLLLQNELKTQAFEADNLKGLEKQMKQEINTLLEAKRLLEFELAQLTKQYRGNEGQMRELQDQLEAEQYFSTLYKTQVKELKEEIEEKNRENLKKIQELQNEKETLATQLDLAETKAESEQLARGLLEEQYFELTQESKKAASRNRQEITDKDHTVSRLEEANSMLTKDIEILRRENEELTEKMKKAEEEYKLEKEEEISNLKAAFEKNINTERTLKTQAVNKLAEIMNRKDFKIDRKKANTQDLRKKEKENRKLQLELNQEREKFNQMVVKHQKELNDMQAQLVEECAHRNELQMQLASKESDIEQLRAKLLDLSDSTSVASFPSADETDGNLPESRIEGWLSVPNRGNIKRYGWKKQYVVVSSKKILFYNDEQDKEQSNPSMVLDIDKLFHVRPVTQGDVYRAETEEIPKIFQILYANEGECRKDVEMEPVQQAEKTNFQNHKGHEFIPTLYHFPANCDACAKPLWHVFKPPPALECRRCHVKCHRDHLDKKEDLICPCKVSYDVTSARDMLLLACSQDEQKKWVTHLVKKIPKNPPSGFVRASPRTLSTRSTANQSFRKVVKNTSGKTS
Chain of IGF1R (P08069 31-1367): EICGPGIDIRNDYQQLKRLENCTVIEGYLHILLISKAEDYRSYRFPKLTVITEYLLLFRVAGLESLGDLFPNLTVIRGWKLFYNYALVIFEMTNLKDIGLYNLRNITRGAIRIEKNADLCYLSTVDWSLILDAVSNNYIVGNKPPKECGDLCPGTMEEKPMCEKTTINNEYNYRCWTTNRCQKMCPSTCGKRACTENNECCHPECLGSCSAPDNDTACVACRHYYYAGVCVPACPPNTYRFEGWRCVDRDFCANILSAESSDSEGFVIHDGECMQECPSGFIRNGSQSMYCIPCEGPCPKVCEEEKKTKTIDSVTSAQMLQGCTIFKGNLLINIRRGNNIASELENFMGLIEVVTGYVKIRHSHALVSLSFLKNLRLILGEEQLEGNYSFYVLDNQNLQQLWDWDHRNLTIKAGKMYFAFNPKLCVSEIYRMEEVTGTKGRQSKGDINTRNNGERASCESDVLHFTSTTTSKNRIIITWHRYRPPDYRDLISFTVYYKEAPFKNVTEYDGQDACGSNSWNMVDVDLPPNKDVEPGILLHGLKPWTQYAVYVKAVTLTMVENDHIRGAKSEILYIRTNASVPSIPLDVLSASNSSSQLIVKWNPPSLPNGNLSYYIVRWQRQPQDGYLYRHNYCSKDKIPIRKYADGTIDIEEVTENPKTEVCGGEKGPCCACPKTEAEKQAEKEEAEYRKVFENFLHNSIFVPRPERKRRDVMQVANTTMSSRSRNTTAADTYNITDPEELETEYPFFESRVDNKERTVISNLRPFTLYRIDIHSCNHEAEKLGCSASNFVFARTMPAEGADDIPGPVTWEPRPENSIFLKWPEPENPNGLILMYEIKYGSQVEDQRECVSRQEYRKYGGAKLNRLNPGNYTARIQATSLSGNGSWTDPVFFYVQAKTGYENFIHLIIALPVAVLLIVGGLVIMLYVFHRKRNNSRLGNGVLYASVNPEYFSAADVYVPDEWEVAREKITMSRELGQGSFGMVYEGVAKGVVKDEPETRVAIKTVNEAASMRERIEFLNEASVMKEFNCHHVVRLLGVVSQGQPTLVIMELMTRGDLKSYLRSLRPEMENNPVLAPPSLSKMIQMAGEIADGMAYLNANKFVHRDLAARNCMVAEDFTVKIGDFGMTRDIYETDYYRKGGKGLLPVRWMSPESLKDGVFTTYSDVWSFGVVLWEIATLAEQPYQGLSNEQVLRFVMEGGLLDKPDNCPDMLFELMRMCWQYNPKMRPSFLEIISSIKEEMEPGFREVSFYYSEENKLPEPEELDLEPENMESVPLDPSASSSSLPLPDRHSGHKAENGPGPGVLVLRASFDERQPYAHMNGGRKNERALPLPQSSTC

Row | Compound | inhibition at 1 µM (BRSK1 (SAD1)) [%] | inhibition at 1 µM (PRKG1) [%] | inhibition at 1 µM (ROCK1) [%] | inhibition at 1 µM (GSK3B (GSK3 beta)) [%] | inhibition at 1 µM (PTK2 (FAK)) [%] | inhibition at 1 µM (MAP4K5 (KHS1)) [%] | inhibition at 1 µM (JAK2) [%] | inhibition at 1 µM (IGF1R) [%] | inhibition at 1 µM (DNA-PK) [%] | inhibition at 1 µM (PRKACA (PKA)) [%] | inhibition at 1 µM (PAK4) [%] | inhibition at 1 µM (PKN1 (PRK1)) [%] | inhibition at 1 µM (CDC42 BPA (MRCKA)) [%]
1 | C=CC(=O)Nc1cccc(C(=O)NC2CCN(Cc3ccc(-c4nc5cc[nH]c(=O)c5cc4-c4ccccc4)cc3)CC2)c1 [30b] | 7 | 10 | 34 | 29 | -4 | 18 | 16 | 1 | 8 | 10 | 8 | 1 | 2
2 | C=CC(=O)Nc1ccc2c(c1)n(C1CCN(Cc3ccc(-c4nc5cc[nH]c(=O)c5cc4-c4ccccc4)cc3)CC1)c(=O)n2C [24b] | 2 | 6 | 16 | 22 | -20 | 3 | 2 | 6 | 7 | 2 | 12 | -1 | 3
3 | C=CC(=O)Nc1cc(NC(=O)NC2CCN(Cc3ccc(-c4nc5cc[nH]c(=O)c5cc4-c4ccccc4)cc3)CC2)ccc1Cl [compound 27] | 16 | 11 | 54 | 18 | -1 | 5 | 0 | 7 | 5 | -4 | 16 | 6 | 8
